In patent publication US8501960B2, “Saxagliptin intermediates, saxagliptin polymorphs, and processes for preparation thereof” (Assia Chemical Industries Ltd., priority 2010, dated 2013):

Assay: Stability of crystalline compound M and Saxagliptin monohydrate form H-1 on storage, measured by HPLC
Format: physicochemical
Procedure: Unless stated otherwise, the HPLC peak % referred to herein were measured using a UV detection having a wavelength of 220 nm.
Instrumental and Chromatographic Conditions
Instrument: HPLC system equipped with UV detector.
• Flow rate: about 1 mL/min • Injection volume: about 10 μL • Column: Waters XBridge C8, 150 mm×4.6 mm, 3.5 μm • Column temperature: 25° C. • Detector: DAD (UV) at wavelengths 220 nm • Mobile phase: Gradient elution with Solution A and Solution B (see Table 1) • Solution A: Buffer solution. Dissolve in water about 24.0 g of sodium octyl-1-sulfonate in 1000 mL volumetric flask, make up to the volume with water and adjust pH to 3.3 with phosphoric acid. • Solution B: Acetonitrile, HPLC grade
• Stop time: 25 minutes • Post time: 5 minutes • Diluent: Prepare a solution of 25% acetonitrile, 25% methanol, and 50% of the buffer solution (the one that is used in gradient elution). The Following Chemicals (or Equivalent) Should Be Used:
• 1. Blank: Use the diluent. • 2. Sample preparation: Prepare SXG sample solution with concentration of about 1.0 mg/mL prepare in duplicate Procedure
Samples of crystalline compound M and Saxagliptin monohydrate form H-1 were prepared and the amount of Saxagliptin and the amount of cyclic amidine were measured by HPLC at time zero (=time 0). Samples of crystalline compound M and Saxagliptin monohydrate form H-1 were maintained for 2 weeks, 1 month and 2 months, at the conditions described in the following table. Afterwards, the amount of Saxagliptin and the amount of cyclic amidine was measured by HPLC.

SMILES | CA = cyclic amidine (amount by HPLC) (40° C./40% RH, 1 month) | SXG = Saxagliptin (amount by HPLC) (40° C./40% RH, 1 month) | CA = cyclic amidine (amount by HPLC) (40° C./40% RH, 2 months) | SXG = Saxagliptin (amount by HPLC) (40° C./40% RH, 2 months) | CA = cyclic amidine (amount by HPLC) (40° C./40% RH, 2 weeks) | SXG = Saxagliptin (amount by HPLC) (40° C./40% RH, 2 weeks) | CA = cyclic amidine (amount by HPLC) (40° C./40% RH, Time 0) | SXG = Saxagliptin (amount by HPLC) (40° C./40% RH, Time 0) | CA = cyclic amidine (amount by HPLC) (50° C./0% RH, 1 month) | SXG = Saxagliptin (amount by HPLC) (50° C./0% RH, 1 month) | CA = cyclic amidine (amount by HPLC) (50° C./0% RH, 2 months) | SXG = Saxagliptin (amount by HPLC) (50° C./0% RH, 2 months) | CA = cyclic amidine (amount by HPLC) (50° C./0% RH, 2 weeks) | SXG = Saxagliptin (amount by HPLC) (50° C./0% RH, 2 weeks) | CA = cyclic amidine (amount by HPLC) (50° C./0% RH, Time 0) | SXG = Saxagliptin (amount by HPLC) (50° C./0% RH, Time 0) | also measured
N#C[C@@H]1C[C@@H]2C[C@@H]2N1C(=O)[C@@H](N)C12CC3CC(CC(O)(C3)C1)C2 [Saxaglitpin base monohydrate, Form H-1, (1S,3S,5S)-2-((2S)-2-Amino-2-(3-hydroxyadamantan-1-yl)-acetyl)-2-azabicyclo[3.1.0]hexane-3-carbonitrile] | CA = 5.8% | SXG = 86.8% | CA = 11.5% | SXG = 77.4% | CA = 4.0% | SXG = 93.1% | CA = 0.50% | SXG = 98.9% | CA = 1.3% | SXG = 96.9% | CA = 2.1% | SXG = 94.8% | CA = 1.2% | SXG = 97.8% | CA = 0.50% | SXG = 98.9% | RRT1.14 (impurity amount by HPLC) (40° C./40% RH, 1 month): RRT1.14 = 4.1%; RRT1.14 (impurity amount by HPLC) (40° C./40% RH, 2 months): RRT1.14 = 7.7%; RRT1.14 (impurity amount by HPLC) (40° C./40% RH, 2 weeks): RRT1.14 = 2.1%; RRT1.14 (impurity amount by HPLC) (50° C./0% RH, 1 month): RRT1.14 = 1.1%; RRT1.14 (impurity amount by HPLC) (50° C./0% RH, 2 months): RRT1.14 = 2.51%; RRT1.14 (impurity amount by HPLC) (50° C./0% RH, 2 weeks): RRT1.14 = 0.4%
CC(C)=N[C@H](C(=O)N1[C@H](C#N)C[C@@H]2C[C@@H]21)C12CC3CC(CC(O)(C3)C1)C2 [crystalline Compound M, (1S,3S,5S)-2-[(2S)-2-propan-2-ylideneamino-2-(3-hydroxy-1-adamantyl)acetyl]-2-azabicyclo[3.1.0]-hexane-3-carbonitrile] | CA = 0.50% | SXG = 99.0% | CA = 0.61% | SXG = 99.0% | CA = 0.53% | SXG = 99.0% | CA = 0.20% | SXG = 99.6% | CA = 0.27% | SXG = 99.4% | CA = 0.31% | SXG = 99.4% | CA = 0.25% | SXG = 99.6% | CA = 0.20% | SXG = 99.6% | chemical stability (compared to Saxagliptin monohydrate form H-1): enhanced chemical stability
